# Reference: US6525001B1, “Substituted pyrimidine and pyridine herbicides” (Mid-American Commercialization Corporation, priority 1997, dated 2003)
# How the values were obtained:
# Assay in all cases: Test B pre-/postemergence
# Type in all cases: in vivo
# Set-up in all cases: key: 0 is no effect; 10 is complete control
# [1] = test system: sugar beet (Beta vulgaris)
# Summary of the method: (§1)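 Scored visually 0 (none) to 10 (complete control) against untreated plants after twelve to sixteen greenhouse days. Test chemicals, formulated in surfactant-containing non-phytotoxic solvent, applied to soil after planting and, separately, onto 1- to 4-leaf (2–18 cm) plants.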
# soybean (Glycine max) = test system: soybean (Glycine max)
# Summary of the method: as §1
# [2] = test system: cocklebur (Xanthium strumarium)
# Summary of the method: as §1
# wild oat (Avena fatua) = test system: wild oat (Avena fatua)
# Summary of the method: as §1
# [3] = test system: velvetleaf (Abutilon theophrasti)
# Summary of the method: as §1
# [4] = test system: pigweed (Amaranthus retroflexus)
# Summary of the method: as §1
# corn (Zea mays) = test system: corn (Zea mays)
# Summary of the method: as §1
# [5] = test system: wheat (Triticum aestivum)
# Summary of the method: as §1
# [6] = test system: broadleaf signalgrass (Brachiaria decumbens)
# Summary of the method: as §1
# rape (Brassica napus) = test system: rape (Brassica napus)
# Summary of the method: as §1
# [7] = test system: crabgrass (Digitaria sanguinalis)
# Summary of the method: as §1
# [8] = test system: bedstraw (Galium aparine)
# Summary of the method: as §1
# [9] = test system: blackgrass (Alopecurus myosuroides)
# Summary of the method: as §1
# [10] = test system: momingglory (Ipomoea hederacea)
# Summary of the method: as §1
# [11] = Preemergence, Rate 62 g/ha, scale of 0 to 10
smiles,measurement,setting,value
Cc1cnc(-n2cnc(C(F)(F)F)n2)nc1C(=O)c1cccc(OC(F)(F)F)c1 [Compound 64],"Plant response rating, Sugarbeets",[1]; [11],9
same,Sugarbeets plant response rating,"[1]; Rate 62 g/ha, Postemergence",9
same,Sugarbeets plant response rating,"[1]; Rate 125 g/ha, Postemergence",10
same,"Plant response rating, Sugarbeets","[1]; Rate 125 g/ha, Preemergence",10
same,"Plant response rating, Sugarbeets","[1]; Rate 250 g/ha, Postemergence",10
same,"Plant response rating, Sugarbeets","[1]; Rate 250 g/ha, Preemergence",10
same,"Plant response rating, Sugarbeets","[1]; Rate 500 g/ha, Postemergence",10
same,"Plant response rating, Sugarbeets","[1]; Rate 500 g/ha, Preemergence",10
same,"Plant response rating, Soybean",soybean (Glycine max); [11],0
same,Soybean plant response rating,"soybean (Glycine max); Rate 62 g/ha, Postemergence",2
same,Soybean plant response rating,"soybean (Glycine max); Rate 125 g/ha, Postemergence",3
same,"Plant response rating, Soybean","soybean (Glycine max); Rate 125 g/ha, Preemergence",1
same,"Plant response rating, Soybean","soybean (Glycine max); Rate 250 g/ha, Postemergence",5
same,"Plant response rating, Soybean","soybean (Glycine max); Rate 250 g/ha, Preemergence",1
same,"Plant response rating, Soybean","soybean (Glycine max); Rate 500 g/ha, Postemergence",6
same,"Plant response rating, Soybean","soybean (Glycine max); Rate 500 g/ha, Preemergence",1
same,"Plant response rating, Cocklebur",[2]; [11],1
same,Cocklebur plant response rating,"[2]; Rate 62 g/ha, Postemergence",6
same,Cocklebur plant response rating,"[2]; Rate 125 g/ha, Postemergence",7
same,"Plant response rating, Cocklebur","[2]; Rate 125 g/ha, Preemergence",1
same,"Plant response rating, Cocklebur","[2]; Rate 250 g/ha, Postemergence",7
same,"Plant response rating, Cocklebur","[2]; Rate 500 g/ha, Postemergence",9
same,"Plant response rating, Cocklebur","[2]; Rate 500 g/ha, Preemergence",7
same,"Plant response rating, Wild oats",wild oat (Avena fatua); [11],3
same,Wild oats plant response rating,"wild oat (Avena fatua); Rate 62 g/ha, Postemergence",3
same,Wild oats plant response rating,"wild oat (Avena fatua); Rate 125 g/ha, Postemergence",4
same,"Plant response rating, Wild oats","wild oat (Avena fatua); Rate 125 g/ha, Preemergence",4
same,"Plant response rating, Wild oats","wild oat (Avena fatua); Rate 250 g/ha, Postemergence",5
same,"Plant response rating, Wild oats","wild oat (Avena fatua); Rate 250 g/ha, Preemergence",5
same,"Plant response rating, Wild oats","wild oat (Avena fatua); Rate 500 g/ha, Postemergence",7
same,"Plant response rating, Wild oats","wild oat (Avena fatua); Rate 500 g/ha, Preemergence",9
same,"Plant response rating, Velvetleaf",[3]; [11],4
same,Velvetleaf plant response rating,"[3]; Rate 62 g/ha, Postemergence",2
same,Velvetleaf plant response rating,"[3]; Rate 125 g/ha, Postemergence",7
same,"Plant response rating, Velvetleaf","[3]; Rate 125 g/ha, Preemergence",6
same,"Plant response rating, Velvetleaf","[3]; Rate 250 g/ha, Postemergence",8
same,"Plant response rating, Velvetleaf","[3]; Rate 250 g/ha, Preemergence",6
same,"Plant response rating, Velvetleaf","[3]; Rate 500 g/ha, Postemergence",9
same,"Plant response rating, Velvetleaf","[3]; Rate 500 g/ha, Preemergence",10
same,"Plant response rating, Redroot pigweed",[4]; [11],9
same,Redroot pigweed plant response rating,"[4]; Rate 62 g/ha, Postemergence",8
same,Redroot pigweed plant response rating,"[4]; Rate 125 g/ha, Postemergence",9
same,"Plant response rating, Redroot pigweed","[4]; Rate 125 g/ha, Preemergence",9
same,"Plant response rating, Redroot pigweed","[4]; Rate 250 g/ha, Postemergence",10
same,"Plant response rating, Redroot pigweed","[4]; Rate 250 g/ha, Preemergence",10
same,"Plant response rating, Redroot pigweed","[4]; Rate 500 g/ha, Postemergence",10
same,"Plant response rating, Redroot pigweed","[4]; Rate 500 g/ha, Preemergence",10
same,"Plant response rating, Corn",corn (Zea mays); [11],3
same,Corn plant response rating,"corn (Zea mays); Rate 62 g/ha, Postemergence",1
same,Corn plant response rating,"corn (Zea mays); Rate 125 g/ha, Postemergence",3
same,"Plant response rating, Corn","corn (Zea mays); Rate 125 g/ha, Preemergence",3
same,"Plant response rating, Corn","corn (Zea mays); Rate 250 g/ha, Postemergence",4
same,"Plant response rating, Corn","corn (Zea mays); Rate 250 g/ha, Preemergence",4
same,"Plant response rating, Corn","corn (Zea mays); Rate 500 g/ha, Postemergence",5
same,"Plant response rating, Corn","corn (Zea mays); Rate 500 g/ha, Preemergence",4
same,"Plant response rating, Wheat",[5]; [11],0
same,Wheat plant response rating,"[5]; Rate 62 g/ha, Postemergence",2
same,Wheat plant response rating,"[5]; Rate 125 g/ha, Postemergence",3
same,"Plant response rating, Wheat","[5]; Rate 125 g/ha, Preemergence",0
same,"Plant response rating, Wheat","[5]; Rate 250 g/ha, Postemergence",3
same,"Plant response rating, Wheat","[5]; Rate 250 g/ha, Preemergence",1
same,"Plant response rating, Wheat","[5]; Rate 500 g/ha, Postemergence",5
same,"Plant response rating, Wheat","[5]; Rate 500 g/ha, Preemergence",2
same,B. signalgrass plant response rating,"[6]; Rate 62 g/ha, Postemergence",4
same,B. signalgrass plant response rating,"[6]; Rate 62 g/ha, Preemergence",8
same,B. signalgrass plant response rating,"[6]; Rate 125 g/ha, Postemergence",5
same,"Plant response rating, B. signalgrass","[6]; Rate 125 g/ha, Preemergence",9
same,"Plant response rating, B. signalgrass","[6]; Rate 250 g/ha, Postemergence",6
same,"Plant response rating, B. signalgrass","[6]; Rate 250 g/ha, Preemergence",10
same,"Plant response rating, B. signalgrass","[6]; Rate 500 g/ha, Postemergence",8
same,"Plant response rating, B. signalgrass","[6]; Rate 500 g/ha, Preemergence",10
same,"Plant response rating, Rape",rape (Brassica napus); [11],3
same,Rape plant response rating,"rape (Brassica napus); Rate 62 g/ha, Postemergence",3
same,Rape plant response rating,"rape (Brassica napus); Rate 125 g/ha, Postemergence",4
same,"Plant response rating, Rape","rape (Brassica napus); Rate 125 g/ha, Preemergence",4
same,"Plant response rating, Rape","rape (Brassica napus); Rate 250 g/ha, Postemergence",4
same,"Plant response rating, Rape","rape (Brassica napus); Rate 250 g/ha, Preemergence",8
same,"Plant response rating, Rape","rape (Brassica napus); Rate 500 g/ha, Postemergence",4
same,"Plant response rating, Rape","rape (Brassica napus); Rate 500 g/ha, Preemergence",10
same,"Plant response rating, Crabgrass",[7]; [11],9
same,Crabgrass plant response rating,"[7]; Rate 62 g/ha, Postemergence",4
same,Crabgrass plant response rating,"[7]; Rate 125 g/ha, Postemergence",5
same,"Plant response rating, Crabgrass","[7]; Rate 125 g/ha, Preemergence",10
same,"Plant response rating, Crabgrass","[7]; Rate 250 g/ha, Postemergence",9
same,"Plant response rating, Crabgrass","[7]; Rate 250 g/ha, Preemergence",10
same,"Plant response rating, Crabgrass","[7]; Rate 500 g/ha, Postemergence",9
same,"Plant response rating, Crabgrass","[7]; Rate 500 g/ha, Preemergence",10
same,"Plant response rating, Bedstraw",[8]; [11],3
same,Bedstraw plant response rating,"[8]; Rate 62 g/ha, Postemergence",3
same,Bedstraw plant response rating,"[8]; Rate 125 g/ha, Postemergence",4
same,"Plant response rating, Bedstraw","[8]; Rate 125 g/ha, Preemergence",8
same,"Plant response rating, Bedstraw","[8]; Rate 250 g/ha, Postemergence",7
same,"Plant response rating, Bedstraw","[8]; Rate 250 g/ha, Preemergence",8
same,"Plant response rating, Bedstraw","[8]; Rate 500 g/ha, Postemergence",9
same,"Plant response rating, Bedstraw","[8]; Rate 500 g/ha, Preemergence",9
same,"Plant response rating, Blackgrass",[9]; [11],5
same,Blackgrass plant response rating,"[9]; Rate 62 g/ha, Postemergence",4
same,Blackgrass plant response rating,"[9]; Rate 125 g/ha, Postemergence",5
same,"Plant response rating, Blackgrass","[9]; Rate 125 g/ha, Preemergence",6
same,"Plant response rating, Blackgrass","[9]; Rate 250 g/ha, Postemergence",7
same,"Plant response rating, Blackgrass","[9]; Rate 250 g/ha, Preemergence",6
same,"Plant response rating, Blackgrass","[9]; Rate 500 g/ha, Postemergence",9
same,"Plant response rating, Blackgrass","[9]; Rate 500 g/ha, Preemergence",9
same,"Plant response rating, Morningglory",[10]; [11],4
same,Morningglory plant response rating,"[10]; Rate 62 g/ha, Postemergence",2
same,Morningglory plant response rating,"[10]; Rate 125 g/ha, Postemergence",8
same,"Plant response rating, Morningglory","[10]; Rate 125 g/ha, Preemergence",10
same,"Plant response rating, Morningglory","[10]; Rate 250 g/ha, Postemergence",8
same,"Plant response rating, Morningglory","[10]; Rate 250 g/ha, Preemergence",10
same,"Plant response rating, Morningglory","[10]; Rate 500 g/ha, Postemergence",8
same,"Plant response rating, Morningglory","[10]; Rate 500 g/ha, Preemergence",10
